According to patent publication US6136823A, “Pyridonecarboxylic acid derivatives or salts thereof and drugs containing the same as the active ingredient” (Wakunaga Pharmaceutical Co., Ltd., priority 1996, dated 2000):
≈ marks a conversion by molar mass, not a printed value. Like-named read-outs stand apart in the source and are kept apart here.

How the values were obtained:
[1] = Urinary recovery rate upon oral administration to rats; type: in vivo, male SD rats; settings: urine, rat, 20 mg/kg or 10 mg/kg, paper disk method; for dose excreted at 6 h: 0-6 hours; for dose excreted at 24 h: 6-24 hours
Protocol: (§1) The recovery rates in both urine and bile of compounds according to the present invention upon oral administration to rats were determined to evaluate their absorbability and excretory behavior. (a) Urinary Recovery Rate Male SD rats aged 6 weeks fasted overnight were forced to orally administer a 0.5% methyl cellulose suspension (20 mg/10 ml/kg or 10 mg/10 ml/kg) of each of specimen compounds using a peroral sound. Urine was collected twice in the course of from 0 up to 6 hours and from 6 up to 24 hours after the administration. The concentration of the specimen compound in the urine was determined by a paper disk method using Bacillus subtilis ATCC 6633 as a tester strain to find its recovery rate in urine.

[2] = Total recovery rate in urine and bile upon oral administration to rats; type: in vivo, male SD rats; settings: rat, 20 mg/kg or 10 mg/kg, urine plus bile, 0-24 hours
Protocol: (§2) The recovery rates in both urine and bile of compounds according to the present invention upon oral administration to rats were determined to evaluate their absorbability and excretory behavior.
as §1, with “Male” for “The recovery rates in both urine and bile of compounds according to the present invention upon oral administration to rats were determined to evaluate their absorbability and excretory behavior. (a) Urinary Recovery Rate Male”
(§3) A polyethylene tube was inserted into the common bile ducts of male SD rats aged 6 weeks fasted overnight under etherization. After the anesthetic wore away, the rats were forced to orally administer each of the specimen compounds in the same manner as in the item (a) to collect bile till 24 hours after the administration. The concentration of the specimen compound in the bile was determined in the same manner as in the item (a) after hydrolysis with an alkali (0.1N, NaOH, 37° C., 1 hour) or without being subjected to any treatment, thereby finding its recovery rate in bile.

[3] = Biliary recovery rate upon oral administration to rats; type: in vivo, male SD rats; settings: bile, rat, 20 mg/kg or 10 mg/kg, 0-24 hours, after hydrolysis with the alkali
Protocol: as §2
(2) Biliary Recovery Rate
as §3

S. epidermidis IFO 12293 = assay: Antibacterial action, MIC against standard strain S. epidermidis IFO 12293; type: cell-based; settings: Staphylococcus epidermidis
Protocol: (§4) The minimum inhibitory concentrations (MIC; μg/ml) of specimen compounds against standard strains [S. aureus 209P (S.a.), S. epidermidis IFO 12293 (S.e.) and P. aeruginosa IFO 3445 (P.a.)] were determined in accordance with the standard method (CHEMOTHERAPY, 29(1), 76, 1981) prescribed by The Japan Chemotherapeutic Association.

P. aeruginosa IFO 3445 = assay: Antibacterial action, MIC against standard strain P. aeruginosa IFO 3445; type: cell-based; settings: Pseudomonas aeruginosa
Protocol: as §4

S. aureus 209P = assay: Antibacterial action, MIC against standard strain S. aureus 209P (standard method of the Japan Chemotherapeutic Association); type: cell-based; settings: Staphylococcus aureus, read-out: MIC S.a.
Protocol: as §4

[4] = IFO12293, S. epidermidis IFO 12293, read-out: MIC S.e.
[5] = IFO3445, P. aeruginosa IFO 3445, read-out: MIC P.a.

Row | Compound | dose excreted at 6 h [1] [%] | dose excreted at 24 h [1] [%] | dose excreted at 24 h [2] [%] | dose excreted at 24 h [3] [%] | MIC (S. epidermidis IFO 12293; [4]) [µg/mL] | MIC (P. aeruginosa IFO 3445; [5]) [µg/mL] | MIC (S. aureus 209P; S. aureus 209P) [µg/mL] | MIC (S. epidermidis IFO 12293; IFO12293, read-out: MIC S.e.) [µg/mL] | MIC (P. aeruginosa IFO 3445; IFO3445, read-out: MIC P.a.) [µg/mL] | MIC (S. aureus 209P; 209P) [µg/mL]
1 | CNc1c(F)c(C)c2c(=O)c(C(=O)O)cn(-c3cc(N)c(F)cc3F)c2c1C [Example 59, 1-(5-Amino-2,4-difluorophenyl)-6-fluoro-5,8-dimethyl-7-methylamino-4-oxo-1,4-dihydroquinoline-3-carboxylic Acid] | – | – | – | – | 0.013 (≈ 0.0332 µM) | 0.39 (≈ 0.997 µM) | 0.006 (≈ 0.0153 µM) | – | – | –
2 | Nc1cc(-n2cc(C(=O)O)c(=O)c3cc(F)c(N)c(Cl)c32)c(F)cc1F [Example 11, 7-Amino-1-(5-amino-2,4-difluorophenyl)-8-chloro-6-fluoro-4-oxo-1,4-dihydroquinoline-3-carboxylic Acid] | 9.7 | 13.7 | 113 | 90 | 0.05 (≈ 0.13 µM) | 0.2 (≈ 0.521 µM) | 0.013 (≈ 0.0339 µM) | – | – | –
3 | CNc1c(F)cc2c(=O)c(C(=O)O)cn(-c3cc(N)c(F)cc3F)c2c1C [Example 16, 1-(5-Amino-2,4-difluorophenyl)-6-fluoro-8-methyl-7-methylamino-4-oxo-1,4-dihydroquinoline-3-carboxylic Acid] | – | – | – | – | 0.05 (≈ 0.133 µM) | 0.39 (≈ 1.03 µM) | 0.013 (≈ 0.0345 µM) | – | – | –
4 | C[C@H]1COc2c(N3CCN(C)CC3)c(F)cc3c(=O)c(C(=O)O)cn1c23 [Levofloxacin, reference compound] | 21.2 | 13.7 | 83.2 | 48.3 | 0.39 (≈ 1.08 µM) | 0.78 (≈ 2.16 µM) | 0.2 (≈ 0.553 µM) | – | – | –
5 | O=C(O)c1cn(C2CC2)c2cc(N3CCNCC3)c(F)cc2c1=O [Cyprofloxacin, reference compound] | – | – | – | – | – | – | – | 0.78 (≈ 2.35 µM) | 0.39 (≈ 1.18 µM) | 0.1 (≈ 0.302 µM)
6 | CNc1c(F)cc2c(=O)c(C(=O)O)cn(-c3cc(N)c(F)cc3F)c2c1Cl [Example 14, 1-(5-Amino-2,4-difluorophenyl)-8-chloro-6-fluoro-7-methylamino-4-oxo-1,4-dihydroquinoline-3-carboxylic Acid] | 1.2 | 2.6 | 107 | 103 | 0.025 (≈ 0.0629 µM) | 0.2 (≈ 0.503 µM) | 0.013 (≈ 0.0327 µM) | – | – | –
7 | CNc1c(F)c(N)c2c(=O)c(C(=O)O)cn(-c3cc(N)c(F)cc3F)c2c1Cl [Example 70, 5-Amino-1-(5-amino-2,4-difluorophenyl)-8-chloro-6-fluoro-7-methylamino-4-oxo-1,4-dihydroquinoline-3-carboxylic Acid] | – | – | – | – | 0.025 (≈ 0.0606 µM) | 0.2 (≈ 0.485 µM) | 0.013 (≈ 0.0315 µM) | – | – | –
8 | CNc1c(F)cc2c(=O)c(C(=O)O)cn(-c3nc(N)c(F)cc3F)c2c1Br [Example 30, 1-(6-Amino-3,5-difluoropyridin-2-yl)-8-bromo-6-fluoro-7-methylamino-4-oxo-1,4-dihydroquinoline-3-carboxylic Acid] | – | – | – | – | 0.025 (≈ 0.0564 µM) | 0.78 (≈ 1.76 µM) | 0.006 (≈ 0.0135 µM) | – | – | –
9 | CNc1c(F)c(O)c2c(=O)c(C(=O)O)cn(-c3cc(N)c(F)cc3F)c2c1C [Example 98, 1-(5-Amino-2,4-difluorophenyl)-6-fluoro-5-hydroxy-8-methyl-7-methylamino-4-oxo-1,4-dihydroquinoline-3-carboxylic Acid] | – | – | – | – | 0.013 (≈ 0.0331 µM) | 0.39 (≈ 0.992 µM) | 0.013 (≈ 0.0331 µM) | – | – | –
10 | CNc1c(F)c(C)c2c(=O)c(C(=O)O)cn(-c3cc(N)c(F)cc3F)c2c1Cl [Example 56, 1-(5-Amino-2,4-difluorophenyl)-8-chloro-6-fluoro-5-methyl-7-methylamino-4-oxo-1,4-dihydroquinoline-3-carboxylic Acid] | – | – | – | – | 0.013 (≈ 0.0316 µM) | 0.2 (≈ 0.486 µM) | 0.006 (≈ 0.0146 µM) | – | – | –
11 | Cc1c(NCCCO)c(F)cc2c(=O)c(C(=O)O)cn(-c3cc(N)c(F)cc3F)c12 [Example 88, 1-(5-Amino-2,4-difluorophenyl)-8-methyl-6-fluoro-7-(3-hydroxy-n-propylamino)-4-oxo-1,4-dihydroquinoline-3-carboxylic Acid] | – | – | – | – | 0.025 (≈ 0.0593 µM) | 0.78 (≈ 1.85 µM) | 0.013 (≈ 0.0309 µM) | – | – | –
12 | Cc1c(N)c(F)cc2c(=O)c(C(=O)O)cn(-c3cc(N)c(F)cc3F)c12 [Example 12, 7-Amino-1-(5-amino-2,4-difluorophenyl)-6-fluoro-8-methyl-4-oxo-1,4-dihydroquinoline-3-carboxylic Acid] | 4.8 | 10.8 | 97.3 | 81.7 | 0.05 (≈ 0.138 µM) | 0.1 (≈ 0.275 µM) | 0.013 (≈ 0.0358 µM) | – | – | –

Second part, led by results:

Row | dose excreted at 6 h [1] [%] | dose excreted at 24 h [1] [%] | dose excreted at 24 h [2] [%] | dose excreted at 24 h [3] [%] | MIC (S. epidermidis IFO 12293; [4]) [µg/mL] | MIC (P. aeruginosa IFO 3445; [5]) [µg/mL] | MIC (S. aureus 209P; S. aureus 209P) [µg/mL] | Compound | MIC (S. epidermidis IFO 12293; IFO12293, read-out: MIC S.e.) [µg/mL] | MIC (P. aeruginosa IFO 3445; IFO3445, read-out: MIC P.a.) [µg/mL] | MIC (S. aureus 209P; 209P) [µg/mL]
13 | 7.6 | 2.7 | 21.5 | 11.1 | – | – | – | Nc1cc(-n2cc(C(=O)O)c(=O)c3cc(F)c(N4CC(N)C4)c(Cl)c32)c(F)cc1F [Referential compound, 7(3-Aminoazetidin-1-yl)-1-(5-amino-2,4-difluoro-phenyl)-8-chloro-6-fluoo-4-oxo-1,4-dihydroquinoline-3-carboxylic acid, reference compound] | – | – | –
14 | 19 | 12.3 | 40.5 | 9.2 | 0.2 (≈ 0.495 µM) | 0.39 (≈ 0.965 µM) | 0.05 (≈ 0.124 µM) | NC1CCN(c2nc3c(cc2F)c(=O)c(C(=O)O)cn3-c2ccc(F)cc2F)C1 (stereo not drawn) [Tosufloxacin, reference compound] | – | – | –
15 | – | – | – | – | 0.2 (≈ 0.51 µM) | 0.78 (≈ 1.99 µM) | 0.05 (≈ 0.127 µM) | C[C@@H]1CN(c2c(F)c(N)c3c(=O)c(C(=O)O)cn(C4CC4)c3c2F)C[C@H](C)N1 [Sparfloxacin, reference compound] | – | – | –
16 | – | – | – | – | 0.013 (≈ 0.0306 µM) | 0.39 (≈ 0.918 µM) | 0.013 (≈ 0.0306 µM) | C=CCNc1c(F)cc2c(=O)c(C(=O)O)cn(-c3nc(N)c(F)cc3F)c2c1Cl [Example 77, 7-Allylamino-1-(6-amino-3,5-difluoropyridin-2-yl)-8-chloro-6-fluoro-4-oxo-1,4-dihydroquinoline-3-carboxylic Acid] | – | – | –
17 | – | – | – | – | 0.05 (≈ 0.121 µM) | 0.39 (≈ 0.942 µM) | 0.013 (≈ 0.0314 µM) | CNc1c(F)cc2c(=O)c(C(=O)O)cn(-c3cc(N)c(F)cc3Cl)c2c1Cl [Example 19, 1-(5-Amino-2-chloro-4-fluorophenyl)-8-chloro-6-fluoro-7-methylamino-4-oxo-1,4-dihydroquinoline-3-carboxylic Acid] | – | – | –
18 | – | – | – | – | 0.05 (≈ 0.132 µM) | 0.78 (≈ 2.06 µM) | 0.013 (≈ 0.0344 µM) | COc1c(F)cc2c(=O)c(C(=O)O)cn(-c3cc(N)c(F)cc3F)c2c1C [Example 99, 1-(5-Amino-2,4-difluorophenyl)-6-fluoro-7-methoxy-8-methyl-4-oxo-1,4-dihydroquinoline-3-carboxylic Acid] | – | – | –
19 | – | – | – | – | 0.025 (≈ 0.0627 µM) | 0.39 (≈ 0.978 µM) | 0.006 (≈ 0.015 µM) | CNc1c(F)cc2c(=O)c(C(=O)O)cn(-c3nc(N)c(F)cc3F)c2c1Cl [Example 28, 1-(6-Amino-3,5-difluoropyridin-2-yl)-8-chloro-6-fluoro-7-methylamino-4-oxo-1,4-dihydroquinoline-3-carboxylic Acid] | – | – | –
